According to patent US20240398783A1, “Compounds and Pharmaceutical Compositions Comprising Inhibitors of Amyloid Peptide Interactions with Glycosaminoglycans, Methods of Treatment and Use Thereof” (Gismo Therapeutics, Inc., priority 2021, published 2024):
Structures can show the parent of a compound that is named as a salt. Where two headings read alike, the source gives them in different places.

Tests used:
Design in all cases: species or system porcine
[1] = biological target: TDP-43 binding to heparin (HS-GAG) (Homo sapiens, UniProt Q13148); experiment: Inhibition of TDP-43 binding to immobilized heparin-BSA (ELISA); conditions: for IC50: TDP-43, heparin-BSA; for inhibition at 30 µM: read-out: TDP43/Heparin Activity (% inhibition class)
TDP-43 binding to heparin (HS-GAG), sequence (Q13148 whole entry): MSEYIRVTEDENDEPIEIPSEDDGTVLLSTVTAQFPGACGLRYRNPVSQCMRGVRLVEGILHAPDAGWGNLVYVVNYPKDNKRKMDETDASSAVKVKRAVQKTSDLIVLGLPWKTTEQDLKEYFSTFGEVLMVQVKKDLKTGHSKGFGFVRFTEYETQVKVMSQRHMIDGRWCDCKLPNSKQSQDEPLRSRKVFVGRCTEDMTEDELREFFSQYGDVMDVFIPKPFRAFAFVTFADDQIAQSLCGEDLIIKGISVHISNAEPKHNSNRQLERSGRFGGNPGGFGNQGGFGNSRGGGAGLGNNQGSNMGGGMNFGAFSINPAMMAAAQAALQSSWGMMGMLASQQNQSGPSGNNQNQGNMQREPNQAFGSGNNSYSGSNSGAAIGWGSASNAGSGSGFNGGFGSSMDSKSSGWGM
Description: (§1) Porcine intestinal mucosa heparin conjugated to Bovine Serum Albumin (Heparin-BSA) was prepared as described (Najjam, S. et al. 1997, Cytokine 12, 1013-1022). Heparin is a sulfated HS-GAG and is commonly used as a HS-GAG in biochemical and binding assays (Lindahl, U. and Kjellen, L. (2013) ibid). Heparin-BSA at 0.01 mg/ml in Phosphate Buffered Saline (PBS; pH 7.4) was added to a 96 well polystyrene ELISA plate (NUNC Cat. No. 449824; 100 μl per well) and incubated Over Night (ON) at 4 degrees Celsius. For negative controls, ELISA plates were coated with BSA instead of Heparin-BSA, using the same procedure. Following the incubation, the plate was washed consecutively, by immersion, with de-ionized water and PBS (pH 7.4). The ELISA plate was then blocked with nonfat milk (2%, 200 μl per well) for 2 hours at Room Temperature (RT) with gentle shaking. Following blocking, the plate was washed with de-ionized water then PBS (pH 7.4). GBAPs were dissolved and diluted in PBS (pH 6.5, supplemented with 0.1% BSA) at desired concentrations, added to the ELISA plates containing immobilized Heparin-BSA (100 μl per well) and incubated for 2 hours at RT with gentle shaking. Following incubation, the plate was washed with de-ionized water and three times with PBS (pH 6.5) plus Tween. Bound GBAP was detected by a monoclonal antibody specific for that GBAP, followed by incubation with secondary antibody conjugated to horseradish peroxidase (HRP). Antibody was diluted in PBS (pH 6.5 supplemented with 1% BSA). Following each incubation with antibody, the plate was washed with de-ionized water and three times with PBS (pH 6.5) wash buffer containing 0.1% Tween. The peroxidase substrate chromogen, TMB (Dako Cat. No. S1599) was added (100 μl per well) to the ELISA plate and incubated at room temperature. After 5 minutes ELISA Stop Solution (hydrochloric acid 1N, sulfuric acid 3N) was added (100 μl per well) to stop the peroxidase catalyzed colorimetric reaction. The Optical Density of the samples was measured at 450 nm using an ELISA plate reader (BioTek Synergy H1). Following color development, the % inhibition compared to control (BSA-coated plates) was determined. IC-50s were calculated using GraphPad Prism software.
The assay was performed as described in Example 43, with the following modifications.
Following to coating the plates with Heparin-BSA, plates were washed as described. The compounds were dissolved in DMSO at 10 mM final concentration and further diluted prior to assay. DMSO concentration in the screening well was up to 2%. Individual compounds were co-incubated with TDP-43 on plates containing immobilized heparin. TDP43 from R&D System (Cat. No. AP-190) was quickly frozen and kept in aliquots at −80 degrees Celsius. TDP-43 dissolved in PBS (pH 6.5, supplemented with BSA, 0.1%) was added to the ELISA plate (100 μl per well) and incubated for 2 hours at RT with gentle shaking. Following the incubation, the plate was washed with de-ionized water and three times with PBS (pH 6.5) plus Tween. Bound TDP-43 was detected by Anti-TDP43 Monoclonal Antibody (R&D System Cat. No. MAB7778), followed by secondary anti-IgG antibody conjugated to HRP (R&D System, Cat. No. HAF007). Following to color development with TMB, as described in Example 43, the Optical Density of the samples was measured at 450 nm using an ELISA plate reader. Following color development, the % inhibition compared to control (no compound, DMSO control) for every compound was determined.
As described in Example 43, Heparin in the form of Heparin-BSA conjugate is used as a source of HS-GAG. For each compound IC-50 value in TDP-43—heparin-BSA binding assay is shown in μM (micromolar). In some cases IC-50 was not measured and % inhibition at 30 μM compound concentration is shown instead. […] All assays were done on 96-well plates in duplicates and experiments were repeated at least twice. […]

[2] = biological target: Amyloid-beta(1-40) binding to heparin (HS-GAG) (Homo sapiens, UniProt P05067); experiment: Inhibition of Amyloid-beta(1-40) binding to immobilized heparin-BSA (ELISA); conditions: for IC50: co-incubation on heparin-BSA plates; for inhibition at 30 µM: read-out: Abeta40/Heparin Activity (% inhibition class)
Amyloid-beta(1-40) binding to heparin (HS-GAG), sequence (P05067 672-711): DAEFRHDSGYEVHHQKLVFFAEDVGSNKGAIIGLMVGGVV
Description: as §1
(§2) The assay was performed as described in Example 43, with the following modifications. Following to coating the plates with Heparin-BSA, plates were washed as described. The compounds were dissolved in DMSO at 10 mM final concentration and further diluted prior to assay. DMSO concentration in the screening well was up to 2%. Individual compounds were co-incubated with Beta-amyloid peptides on plates containing immobilized heparin. Beta-amyloid (1-42) was purchased from rPeptide (Cat. No. A1163) and used to prepare oligomers according to Stine et al., 2003 (J Biol Chem. 278(13):11612-22) as follows. 1,1,1,3,3,3-Hexafluoro-2-propanol- (HFIP; Sigma Cat. No. 105228)-treated Beta amyloid (1-42) was dissolved in dry DMSO (Sigma Cat. No. D2650) to 5 mM concentration. Dissolved Beta amyloid (1-42) was then diluted to 100 μM in ice-cold cell culture medium (phenol red-free Ham's F-12; Caisson Labs, Cat. No. HFL05), followed immediately by vortexing for 30 seconds, and incubating at 4 degrees Celsius for 24 h. Resulting Beta amyloid (1-42) oligomers were centrifuged at 12,000 rpm for 10 min at 4 degree Celsius to remove aggregates. Oligomers were then quickly frozen and kept in aliquots at −80 degrees Celsius. Beta-amyloid (1-40) from rPeptide (Cat No. A1153) was dissolved in DMSO, quickly frozen and kept in aliquots at −80 degrees Celsius. Beta-amyloid (1-42) oligomers or Beta-amyloid (1-40) diluted in PBS (pH 6.5, supplemented with BSA, 0.1%) were added to the ELISA plate (100 μl per well) and incubated for 2 hours at RT with gentle shaking. Following the incubation, the plate was washed with de-ionized water and three times with PBS (pH 6.5) plus Tween. […]

[3] = biological target: T1, Amyloid-beta(1-42) oligomer binding to heparin (HS-GAG) (Homo sapiens, UniProt P05067); experiment: Inhibition of Amyloid-beta(1-42) oligomer binding to immobilized heparin-BSA (ELISA); conditions: for IC50: co-incubation on heparin-BSA plates, read-out: Abeta42/Heparin Activity (IC-50); for inhibition at 30 µM: read-out: Abeta42/Heparin Activity (% inhibition class)
T1 construct: Beta-amyloid (1-42) was purchased from rPeptide (Cat. No. A1163); purchased rPeptide A1163
T1 sequence (P05067 672-713): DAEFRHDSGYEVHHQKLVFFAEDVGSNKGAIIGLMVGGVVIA
Description: as §1, §2

[4] = Abeta40/Heparin Activity (IC-50), Abeta(1-40)
[5] = 30 μM compound, Abeta(1-40), heparin-BSA
[6] = 30 μM compound, Abeta(1-42) oligomers, heparin-BSA

Row | SMILES | IC50 ([3]; Abeta(1-42) oligomers) [µM] | IC50 ([1]; TDP43/Heparin Activity (IC-50)) [µM] | IC50 [2, 4] [µM] | inhibition at 30 µM [1] [%] | inhibition at 30 µM [3, 6] [%] | other results
1 | Cc1cc(-n2ccnc2)ccc1/C=N/Nc1ccnc2cc(Cl)ccc12 [Compound 1, (E)-4-((E)-(4-(1H-imidazol-1-yl)-2-methylbenzylidene)hydrazono)-7-chloro-1,4-dihydroquinoline] | 2.3 |  |  |  |  | IC50 ([1]; read-out: TDP43/Heparin Activity (IC-50)): 2.92 µM; IC50 ([2]; Abeta(1-40), read-out: Abeta40/Heparin Activity (IC-50)): 3.67 µM
2 | Cc1ncn(-c2ccc(/C=N/Nc3ccnc4cc(Cl)ccc34)cc2)c1C [Compound 2, (E)-7-chloro-4-((E)-(4-(4,5-dimethyl-1H-imidazol-1-yl)benzylidene)hydrazono)-1,4-dihydroquinoline] | 30.7 | 61.7 | 22.9 |  |  | 
3 | Clc1ccc2c(N/N=C/c3ccc(-n4cccn4)cc3)ccnc2c1 [Compound 3, (E)-4-((E)-(4-(1H-pyrazol-1-yl)benzylidene)hydrazono)-7-chloro-1,4-dihydroquinoline] | 2.36 | 8.1 | 2.75 |  |  | 
4 | C[N+](C)(C)Cc1ccc(/C=N\Nc2ccnc3ccc(Cl)cc23)cc1 [Compound 4, (Z)-1-(4-((2-(6-chloroquinolin-4-yl)hydrazineylidene)methyl)phenyl)—N,N,N-trimethylmethanaminium iodide] | 42.7 |  | 51.3 | < 30 |  | 
5 | Fc1ccc2c(N/N=C/c3ccc(-n4ccnc4)cc3)ccnc2c1 [Compound 5, (E)-4-(2-(4-(1H-imidazol-1-yl)benzylidene)hydrazinyl)-7-fluoroquinoline] |  | 71.4 | 3.33 |  |  | inhibition at 30 µM [3]: < 30%
6 | Fc1ccc2c(N/N=C/c3ccc(CN4CCOCC4)cc3)ccnc2c1 [Compound 6, (E)-4-(4-((2-(7-fluoroquinolin-4-yl)hydrazono)methyl)benzyl)morpholine] |  |  |  | < 30 | > 30 | inhibition at 30 µM [2, 5]: > 30%
7 | CN1CCN(Cc2ccc(/C=N/Nc3ccnc4cc(Cl)ccc34)cc2)CC1 [Compound 7, (E)-7-chloro-4-(2-(4-((4-methylpiperazin-1-yl)methyl)benzylidene)hydrazinyl)quinolone] |  |  | 25.2 | < 30 | < 30 | 
8 | C(=N\Nc1ccc2c3c(cccc13)CC2)/c1ccc(-n2ccnc2)cc1 [Compound 8, (E)-1-(4-((2-(1,2-dihydroacenaphthylen-5-yl)hydrazineylidene)methyl)phenyl)-1H-imidazole] |  | 10.8 |  |  |  | inhibition at 30 µM [2]: < 30%; inhibition at 30 µM [3]: < 30%
9 | C[n+]1ccc(/C=N\Nc2ccnc3ccccc23)cc1 [Compound 9, (Z)-1-methyl-4-((2-(quinolin-4-yl)hydrazono)methyl)pyridin-1-ium iodide] |  |  |  | < 30 | < 30 | inhibition at 30 µM [2, 5]: < 30%
10 | O=S1(=O)CCN(Cc2ccc(/C=N/Nc3ccnc4cc(F)ccc34)cc2)CC1 [Compound 10, (E)-4-(4-((2-(7-fluoroquinolin-4-yl)hydrazono)methyl)benzyl)thiomorpholine 1,1-dioxide] |  |  | 35.6 | > 30 | < 30 | 
11 | COc1cc2nccc(NN=Cc3ccc(-n4ccnc4)c(C)c3)c2cc1OC [Compound 11, 4-(2-(4-(1H-imidazol-1-yl)-3-methylbenzylidene)hydrazineyl)-6,7-dimethoxyquinoline hydrochloride] |  |  |  | < 30 |  | inhibition at 30 µM [2]: > 30%; inhibition at 30 µM [3]: < 30%
12 | COc1ccc2c(NN=Cc3ccc(-n4ccnc4)c(C)c3)ccnc2c1 [Compound 12, 4-(2-(4-(1H-imidazol-1-yl)-3-methylbenzylidene)hydrazineyl)-7-methoxyquinoline] |  |  | 17.9 | < 30 |  | inhibition at 30 µM [3]: < 30%
13 | COc1cc2nccc(N/N=C/c3ccc(-n4ccnc4)c(OC)c3)c2cc1OC [Compound 13, (E)-4-(2-(4-(1H-imidazol-1-yl)-3-methoxybenzylidene)hydrazineyl)-6,7-dimethoxyquinoline phosphate] |  |  |  | < 30 |  | inhibition at 30 µM [2]: < 30%; inhibition at 30 µM [3]: < 30%
14 | Clc1ccc2c(N/N=C/c3ccc(-n4ccnc4)nc3)ccnc2c1 [Compound 14, (E)-4-(2-((6-(1H-imidazol-1-yl)pyridin-3-yl)methylene)hydrazineyl)-7-chloroquinoline hydrochloride] | 8.14 | 4.32 | 7.77 |  |  | 
15 | Cc1ncn(-c2ccc(/C=N\Nc3ncnc4cc(Cl)ccc34)cn2)c1C [Compound 15, 7-chloro-4-(2-((6-(4,5-dimethyl-1H-imidazol-1-yl)pyridin-3-yl)methylene)hydrazineyl)quinazoline hydrochloride] | 18.9 | 3.06 | 23 |  |  | 
16 | C/C(=N\Nc1ncnc2cc(Cl)ccc12)c1cccc(CN(C)C)c1 [Compound 29, 1-(3-(1-(2-(7-chloroquinazolin-4-yl)hydrazineylidene)ethyl)phenyl)—N,N-dimethylmethanamine] |  |  |  | < 30 | > 30 | 
17 | C/C(=N\Nc1ncnc2cc(Cl)ccc12)c1ccc(-n2cncn2)nc1 [Compound 32, (E)-4-(2-(1-(6-(1H-1,2,4-triazol-1-yl)pyridin-3-yl)ethylidene)hydrazineyl)-7-chloroquinazoline] |  |  |  | < 30 | < 30 | 
